Reference: US20240299335A1, “SHELF-STABLE FORMULATIONS OF BENZOYL PEROXIDE AND METHODS OF PRODUCING SAME” (BLUE HILL TECHNOLOGIES LLC, priority 2022, published 2024)
“Also recorded” adds a separate entry of the source.

What was measured:
Type in all cases: physicochemical
[1] = Effect of antioxidants on benzene levels in FDA-approved benzoyl peroxide drug products (headspace GC-MS); conditions: antioxidant added to commercial drug products; 50° C. for 2 days; FIG. 5
Text: (§1) The method USP <467> Residual Solvents Procedure A was modified from flame ionization detection (FID) to mass spectrometry (MS) detection for benzene in benzoyl peroxide products. […] Identification of benzene was based on the retention time matching to certified reference standards and mass spectral m/z matching to benzene.

[2] = Effect of antioxidants on benzene levels in 10% w/v benzoyl peroxide formulations (headspace GC-MS); conditions: 10% w/v benzoyl peroxide plus antioxidant
Text: Agilent 7890B Gas Chromatography (GC) system equipped with 7697A headspace autosampler coupled with 5977B Mass Selective Detector (MS) was used for sample analysis, and a DB-Select 624 UI, 60 m×0.32 mm×1.8 μm GC column (Agilent Technology, Santa Clara, CA) was used to separate benzene from other compounds. Dimethyl sulfoxide (DMSO, GC Headspace Grade) was used for sample preparation (Thermo Fisher Scientific, Waltham, MA). All certified reference standards, solution, and buffer reagents including sodium citrate dihydrate, citric acid, tris, and glycerol were sourced from Sigma-Aldrich, St. Louis, MO.
For benzoyl peroxide stability studies in glycerol, benzoyl peroxide was prepared in a stock suspension of 20% w/v in glycerol and mixed 1:1 with 20% w/v suspensions or v/v solutions of antioxidants in glycerol. For pH experiments, the same stock suspension of benzoyl peroxide was mixed 1:1 with a 50% glycerol solution with 200 mM buffering agent (Citrate buffer pH 3.0, Tris Buffer pH 7.0, or Tris Buffer pH 9.0) for final 75% glycerol solution. The final volume of all reactions was 100 μL in GC headspace vials with 10% solution benzoyl peroxide (10 mg) and 10% antioxidant or 100 mM buffering agent. Vials were immediately crimp sealed for incubation. For analysis, 4.9 mL of DMSO was added to make up the final volume to approximate 5 mL, crimp sealed, and gently vortexed to mix.
Benzene standard was diluted in DMSO for an 11-point calibration ranging from 10 ng/vial to 100 μg/vial. The coefficient of determination R^2 were greater than 0.999. Five (5) mL of DMSO was used for negative control samples.
Benzoyl peroxide products in original packaging were incubated for up to one month at 25° C., 37° C., or 50° C. and sampled periodically. Benzoyl peroxide and products with antioxidant additions or buffering agent additions were prepared and incubated in crimp sealed GC headspace vials.
The method USP <467> Residual Solvents Procedure A was modified from flame ionization detection (FID) to mass spectrometry (MS) detection for benzene in benzoyl peroxide products. The gas chromatography (GC) methods were also modified to allow shorter run time and the method was validated for addition of up to 500 mg benzoyl peroxide product or […] glycerol. Identification of benzene was based on the retention time matching to certified reference standards and mass spectral m/z matching to benzene. Lower limit of detection (LLOD) was 10 ng (equivalent to 0.02 ppm in hand benzoyl peroxide products) and LLOQ was 25 μg. The measurement uncertainty was determined to be 20%.
10% w/v benzoyl peroxide formulations were prepared. […]

[3] = Benzene levels formed by crystalline benzoyl peroxide on incubation (headspace GC-MS); conditions: incubated at 50° C. for up to 12 days; FIG. 11
Text: as §1

[4] = Effect of solvents on benzene levels in 10% w/v benzoyl peroxide formulations (headspace GC-MS); conditions: 10% benzoyl peroxide in the solvent; 37° C. for 10 days; compared to glycerol or NMP; FIG. 8
Description: as §1
10% w/v benzoyl peroxide formulations were prepared. […] Benzene levels in each formulation were tested at various time points according to the protocols described in Example 1.

[5] = 37° C. for up to two weeks, FIG. 3
[6] = 50° C. for up to two weeks, FIG. 4

Row | Compound | levels of benzene formed in two FDA-approved drug products with added antioxidant [1] | levels of benzene formed in the formulations [2, 5] | levels of benzene formed in the formulations [2, 6] | levels of benzene formed in the formulations [4] | other results
1 | CC(C)(C)c1cc(O)ccc1O [TBHQ, tert-butyl hydroquinone] | reduce the degradation of benzoyl peroxide to benzene | – | – | – | –
2 | Cc1cc(C(C)(C)C)c(O)c(C(C)(C)C)c1 [BHT, butylated hydroxytoluene] | reduce the degradation of benzoyl peroxide to benzene | reduced the levels of benzene; also recorded: most dramatic reduction | reduced the levels of benzene; also recorded: most dramatic reduction | – | –
3 | O=C(OOC(=O)c1ccccc1)c1ccccc1 [crystalline benzoyl peroxide, benzoyl peroxide] | – | – | – | – | levels of benzene formed [3]: may be protected from forming benzene levels
4 | CC(=O)Oc1c(C)c(C)c2c(c1C)CCC(C)(CCC[C@H](C)CCC[C@H](C)CCCC(C)C)O2 (stereo partly drawn) [vitamin E acetate] | – | reduced the levels of benzene | reduced the levels of benzene | – | –
5 | C[S+](C)[O-] [DMSO, dimethylsulfoxide] | – | – | – | most dramatic reduction in, or complete prevention of, benzene levels | –
6 | O [water] | – | – | – | most dramatic reduction in, or complete prevention of, benzene levels | –
